Results reported in patent publication US11590134B2, “Aminopyrimidine amide autophagy inhibitors and methods of use thereof” (Deciphera Pharmaceuticals, LLC, priority 2019, dated 2023).

Experiments:
[1] = target: T1, LRRK2 kinase (Homo sapiens, UniProt Q5S007); assay: Biochemical assay for LRRK2 (coupled pyruvate kinase/lactate dehydrogenase assay); conditions: 26.4 nM LRRK2 (residues 970-2528), peptide substrate, 1 mM ATP
T1 construct: (residues 970-2528; ID NO; 4); purchased Thermo Fisher
Description: (§1) Activity of LRRK2 kinase was determined spectroscopically using a coupled pyruvate kinase/lactate dehydrogenase assay that continuously monitors the ATP hydrolysis-dependent oxidation of NADH (e.g., Schindler et al. Science (2000) 289: 1938-1942). Assays were conducted in 384-well plates (100 uL final volume) using 26.4 nM LRRK2 (Thermo Fisher), 0.1 mM peptide substrate (RLGRDKYKTLRQIRQ (SEQ ID NO: 6)), 1.5 units pyruvate kinase, 2.1 units lactate dehydrogenase, 1 mM phosphoenol pyruvate, 0.28 mM NADH and 1 mM ATP in assay buffer (100 mM Tris, pH 7.5, 15 mM MgCl2, 0.5 mM DTT, 0.004% (w/v) BSA, and 0.004% Triton X-100). Inhibition of LRRK2 was measured by adding serial diluted test compound (final assay concentration of 1% DMSO). A decrease in absorption at 340 nm was monitored continuously for 6 hours at 30° C. on a multi-mode microplate reader (BioTek). The reaction rate was calculated using the 2-3 h time frame. The reaction rate at each concentration of compound was converted to percent inhibition using controls (i.e. reaction with no test compound and reaction with a known inhibitor) and IC50 values were calculated using software routines in Prism (GraphPad software).

[2] = target: T2, ULK2 kinase (Homo sapiens, UniProt Q8IYT8); assay: Biochemical assay for ULK2 (coupled pyruvate kinase/lactate dehydrogenase assay); conditions: 9.7 nM ULK2 (residues 1-306), myelin basic protein substrate, 1 mM ATP; read-out: ULK2.2
T2 construct: purchased Eurofins 14-772
Description: (§2) Activity of ULK2 kinase was determined spectroscopically using a coupled pyruvate kinase/lactate dehydrogenase assay that continuously monitors the ATP hydrolysis-dependent oxidation of NADH (e.g., Schindler et al. Science (2000) 289: 1938-1942). Assays were conducted in 384-well plates (100 uL final volume) using 9.7 nM ULK2 (Eurofins CAT #14-772), 0.25 mg/mL myelin basic protein, 1.5 units pyruvate kinase, 2.1 units lactate dehydrogenase, 1 mM phosphoenol pyruvate, 0.28 mM NADH and 1 mM ATP in assay buffer (100 mM Tris, pH 7.5, 15 mM MgCl2, 0.5 mM DTT, 0.1% octyl-glucoside, 0.002% (w/v) BSA, and 0.002% Triton X-100). Inhibition of ULK2 was measured by adding serial diluted test compound (final assay concentration of 1% DMSO). A decrease in absorption at 340 nm was monitored continuously for 6 hours at 30° C. on a multi-mode microplate reader (BioTek). The reaction rate was calculated using the 2-3 h time frame. The reaction rate at each concentration of compound was converted to percent inhibition using controls (i.e. reaction with no test compound and reaction with a known inhibitor) and IC50 values were calculated by fitting a four-parameter sigmoidal curve to the data using Prism (GraphPad software).

[3] = target: T3, ULK1 kinase (Homo sapiens, UniProt O75385, E37A/K38A); assay: Biochemical assay for ULK1.3 (coupled pyruvate kinase/lactate dehydrogenase assay); conditions: 0.1 nM ULK1 (residues 1-283), peptide substrate, 1 mM ATP
T3 construct: (residues 1-283; ID NO: 2); purchased Beryllium
T3 sequence (O75385 1-283 E37A/K38A): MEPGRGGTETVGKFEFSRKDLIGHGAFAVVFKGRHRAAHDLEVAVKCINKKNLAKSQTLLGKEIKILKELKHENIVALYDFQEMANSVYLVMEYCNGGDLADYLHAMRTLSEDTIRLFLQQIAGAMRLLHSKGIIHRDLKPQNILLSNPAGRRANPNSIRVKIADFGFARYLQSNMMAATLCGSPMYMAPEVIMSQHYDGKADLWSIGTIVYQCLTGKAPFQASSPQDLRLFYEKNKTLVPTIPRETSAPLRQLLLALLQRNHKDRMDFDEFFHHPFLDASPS
Description: as §1, with “ULK1” for “LRRK2”, “0.1” for “26.4”, “ULK1 (from Beryllium), 0.075” for “LRRK2 (Thermo Fisher), 0.1”, “(YANWLAASIYLDGKKK” for “(RLGRDKYKTLRQIRQ”, “5)),” for “6)),”

[4] = system: ULK kinase substrate ATG13 (phospho-Serine 318 ATG13) in A549 cells; assay: pATG13 ELISA in mutant KRas A549 cells in combination with trametinib; format: cell-based; conditions: A549 (KRAS mutant) human lung cancer cells, with 250 nM trametinib, overnight
Description: A549 (KRAS mutant) human lung cancer cells (6,000 cells/well) were added to a 384-well tissue-culture treated plate in 50 μL of pre-warmed DMEM medium supplemented with 10% characterized fetal bovine serum (Invitrogen, Carlsbad, Calif.), 100 units/mL penicillin G, and 100 μg/mL streptomycin and allowed to grow overnight at 37° C., 5% CO2, and 95% humidity. The following day, 10 μL of media containing trametinib or DMSO as a control was added to wells. The final concentration of trametinib in wells was 250 nM. A dose response of a test compound (0.6 μL per well) was added. DMSO (0.6 μL) was added to control wells. The plate was briefly shaken to mix wells and then incubated at 37° C. overnight. The next day, the media was aspirated and cells were washed with Dulbecco's Phosphate Buffered Saline (Gibco). Cells were lysed using MPER lysis buffer (Pierce, Rockford, Ill.) containing Halt Phosphatase and Protease Inhibitors (Pierce, Rockford, Ill.) and Phosphatase inhibitor cocktail 2 (Sigma, St. Louis, Mo.) at 4° C. for 10 minutes with shaking.
Cellular levels of phospho-Serine 318 ATG13 (pATG13) were measured via an ELISA method. Total ATG13 Antibody (Cell Signaling Cat #13273) was used to coat the wells. The plate was incubated at 4° C. overnight and washed with ELISA wash buffer (Biolegend Cat #421601). The wells were then blocked with assay diluent (Biolegend Cat #421203) for 1 hour at room temperature. Plate wells were washed with ELISA wash buffer. Cell lysate was added to wells and incubated at room temperature for 2 hours. Plate wells were washed with ELISA wash buffer. Biotinylated pS318-ATG13 antibody (Rockland Immunochemicals Cat #600-401-C49) was diluted in assay diluent and added to each well and incubated at room temperature for 1 hour. Plate wells were washed with ELISA wash buffer. Streptavidin linked to horseradish peroxidase (Thermo Fisher Cat #21140) was diluted in assay diluent and added to each well and incubated at room temperature for 1 hour. Plate wells were washed with ELISA wash buffer. High sensitivity TMB substrate (Biolegend Cat #421101) was added to each well and incubated at room temperature for 20 minutes. The reaction was stopped with 2N Sulfuric Acid. The plate was analyzed at on a plate reader measuring absorbance at 450 nm and 540 nm (background). Signal was calculated by first subtracting the background absorbance at 540 nm from the absorbance at 450 nm for each well. Next, the background corrected absorbance at 450 nm from blank wells was subtracted from test wells. Data was compared to control wells to determine % ATG13 phosphorylation. GraphPad Prism was used to calculate IC50 values.

[5] = target: T4, ULK1 kinase (Homo sapiens, UniProt O75385); assay: Biochemical assay for ULK1.2 (coupled pyruvate kinase/lactate dehydrogenase assay); conditions: 19 nM ULK1 (residues 1-314), myelin basic protein substrate, 1 mM ATP
T4 construct: purchased Eurofins 14-959
T4 sequence (O75385 with tags, fused parts or gaps): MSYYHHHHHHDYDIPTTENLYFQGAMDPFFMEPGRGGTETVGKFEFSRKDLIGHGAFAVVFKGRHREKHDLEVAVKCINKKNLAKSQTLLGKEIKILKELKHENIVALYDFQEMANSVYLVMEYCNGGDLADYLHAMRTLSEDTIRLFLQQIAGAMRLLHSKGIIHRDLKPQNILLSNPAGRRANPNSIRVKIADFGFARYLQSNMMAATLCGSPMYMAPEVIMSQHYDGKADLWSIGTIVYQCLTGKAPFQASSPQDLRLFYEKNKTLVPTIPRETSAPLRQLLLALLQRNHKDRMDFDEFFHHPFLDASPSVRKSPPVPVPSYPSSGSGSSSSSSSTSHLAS
Description: as §2, with “ULK1” for “ULK2”, “19” for “9.7”, “#14-959),” for “#14-772),”

T1 sequence (Q5S007 with tags, fused parts or gaps): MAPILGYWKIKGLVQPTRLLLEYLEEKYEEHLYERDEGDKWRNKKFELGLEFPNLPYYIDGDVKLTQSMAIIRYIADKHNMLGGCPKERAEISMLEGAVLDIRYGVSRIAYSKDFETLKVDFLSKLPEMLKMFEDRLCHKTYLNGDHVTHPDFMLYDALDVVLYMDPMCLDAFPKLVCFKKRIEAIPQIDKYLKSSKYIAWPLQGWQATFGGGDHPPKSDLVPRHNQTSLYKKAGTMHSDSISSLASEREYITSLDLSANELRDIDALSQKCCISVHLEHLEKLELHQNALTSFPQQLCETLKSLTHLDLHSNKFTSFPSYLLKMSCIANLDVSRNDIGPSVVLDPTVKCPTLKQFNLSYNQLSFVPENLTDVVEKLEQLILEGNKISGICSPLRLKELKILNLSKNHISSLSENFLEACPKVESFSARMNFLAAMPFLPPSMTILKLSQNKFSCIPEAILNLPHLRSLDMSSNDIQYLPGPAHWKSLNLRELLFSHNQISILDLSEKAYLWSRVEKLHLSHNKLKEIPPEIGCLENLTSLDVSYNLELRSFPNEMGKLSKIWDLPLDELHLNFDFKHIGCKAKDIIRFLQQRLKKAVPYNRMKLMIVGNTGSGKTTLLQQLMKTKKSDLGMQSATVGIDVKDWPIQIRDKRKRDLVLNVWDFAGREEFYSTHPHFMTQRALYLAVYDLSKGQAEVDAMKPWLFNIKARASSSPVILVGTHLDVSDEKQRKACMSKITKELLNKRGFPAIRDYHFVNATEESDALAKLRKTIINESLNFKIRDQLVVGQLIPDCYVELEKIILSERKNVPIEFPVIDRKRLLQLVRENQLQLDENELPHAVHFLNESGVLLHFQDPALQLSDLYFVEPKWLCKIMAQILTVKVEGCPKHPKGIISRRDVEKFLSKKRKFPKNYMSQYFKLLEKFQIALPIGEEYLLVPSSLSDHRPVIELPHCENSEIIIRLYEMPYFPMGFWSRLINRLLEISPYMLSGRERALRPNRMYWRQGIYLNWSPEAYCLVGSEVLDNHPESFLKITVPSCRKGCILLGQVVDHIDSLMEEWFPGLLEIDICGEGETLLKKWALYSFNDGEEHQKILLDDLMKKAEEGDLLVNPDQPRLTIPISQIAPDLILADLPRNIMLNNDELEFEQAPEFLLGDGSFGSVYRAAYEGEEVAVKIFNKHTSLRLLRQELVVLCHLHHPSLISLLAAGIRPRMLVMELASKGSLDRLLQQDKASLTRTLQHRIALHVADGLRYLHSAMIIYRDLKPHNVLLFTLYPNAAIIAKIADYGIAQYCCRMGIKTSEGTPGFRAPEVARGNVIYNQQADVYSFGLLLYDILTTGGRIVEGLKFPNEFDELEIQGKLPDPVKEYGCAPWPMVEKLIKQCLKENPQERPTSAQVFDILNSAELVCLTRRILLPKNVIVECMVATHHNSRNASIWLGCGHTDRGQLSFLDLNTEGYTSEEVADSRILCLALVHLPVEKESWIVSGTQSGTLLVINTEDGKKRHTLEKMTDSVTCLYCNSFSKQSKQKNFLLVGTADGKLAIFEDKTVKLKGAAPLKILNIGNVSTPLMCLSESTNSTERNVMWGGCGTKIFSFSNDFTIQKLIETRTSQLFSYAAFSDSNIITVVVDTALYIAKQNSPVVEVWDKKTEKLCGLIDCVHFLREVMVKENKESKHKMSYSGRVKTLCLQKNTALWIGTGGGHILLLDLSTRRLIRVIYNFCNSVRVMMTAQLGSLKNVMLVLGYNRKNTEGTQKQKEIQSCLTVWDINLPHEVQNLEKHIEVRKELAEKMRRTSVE
T2 sequence (Q8IYT8 with tags, fused parts or gaps): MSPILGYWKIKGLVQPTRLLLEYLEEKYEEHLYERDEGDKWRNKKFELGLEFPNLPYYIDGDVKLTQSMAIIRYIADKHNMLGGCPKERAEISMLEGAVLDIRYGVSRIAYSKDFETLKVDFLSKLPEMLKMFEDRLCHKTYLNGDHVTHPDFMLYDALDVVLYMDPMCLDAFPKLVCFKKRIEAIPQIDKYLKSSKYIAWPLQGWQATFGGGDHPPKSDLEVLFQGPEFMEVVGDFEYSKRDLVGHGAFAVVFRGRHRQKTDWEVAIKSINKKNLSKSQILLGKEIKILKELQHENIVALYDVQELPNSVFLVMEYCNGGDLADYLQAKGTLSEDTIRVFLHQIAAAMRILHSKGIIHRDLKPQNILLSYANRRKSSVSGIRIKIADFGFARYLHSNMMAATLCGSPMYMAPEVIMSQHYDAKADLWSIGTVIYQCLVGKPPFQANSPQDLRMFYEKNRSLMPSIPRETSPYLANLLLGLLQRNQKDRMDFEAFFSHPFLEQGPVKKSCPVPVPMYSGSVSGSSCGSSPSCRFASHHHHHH

IC50 [1] [nM] | IC50 [2] [nM] | IC50 [3] [nM] | IC50 [4] [nM] | IC50 [5] [nM] | Structure (SMILES)
100 to 300 | 500 to 20000 | 500 to 20000 |  |  | CC(C)Oc1cc(N2CCN(C)CC2)ccc1Nc1ncc(Cl)c(NCCCNC(=O)C2CCC2)n1 [Example 10]
600 to 20000 | 500 to 20000 | 500 to 20000 |  |  | CCc1cc(N2CCN(C)CC2)ccc1Nc1ncc(C2CC2)c(NCCCNC(=O)C2CCC2)n1 [Example 19]
100 to 300 | 100 to 500 | 25 to 100 |  |  | CN1CCN(c2ccc(Nc3ncc(Br)c(NCCCNC(=O)C4CCC4)n3)c(C3CC3)c2)CC1 [Example 9]
100 to 300 | 100 to 500 | 25 to 100 |  |  | CCc1cc(N2CCN(C)CC2)ccc1Nc1ncc(Br)c(NCCCNC(=O)C2CCC2)n1 [Example 7]
1 to 100 | 500 to 20000 | 500 to 20000 |  |  | Cc1nn(C(C)(C)C(N)=O)cc1Nc1ncc(C(F)(F)F)c(NCCCNC(=O)C2CCC2)n1 [Example 26, N-(3-((2-((1-(1-amino-2-methyl-1-oxopropan-2-yl)-3-methyl-1H-pyrazol-4-yl)amino)-5-(trifluoromethyl)pyrimidin-4-yl)amino)propyl)cyclobutanecarboxamide]
100 to 300 | 25 to 100 |  | 100 to 300 | 1 to 25 | [2H]C([2H])([2H])N1CCC(n2cc(Nc3ncc(C(F)(F)F)c(NCCCNC(=O)C4CCC4)n3)c(C)n2)CC1 [Example 20]
1 to 100 | 500 to 20000 | 100 to 500 |  |  | Cc1nn(C(C)(C)C#N)cc1Nc1ncc(C(F)(F)F)c(NCCCNC(=O)C2CCC2)n1 [Example 30, N-(3-((2-((1-(2-cyanopropan-2-yl)-3-methyl-1H-pyrazol-4-yl)amino)-5-(trifluoromethyl)pyrimidin-4-yl)amino)propyl)cyclobutanecarboxamide]
1 to 100 |  |  | 300 to 600 | 25 to 100 | Cc1nn(C2CCN(C(C)C)CC2)cc1Nc1ncc(C(F)(F)F)c(NCCCNC(=O)C2CCC2)n1 [Example 22, N-(3-((2-((1-(1-isopropylpiperidin-4-yl)-3-methyl-1H-pyrazol-4-yl)amino)-5-(trifluoromethyl)pyrimidin-4-yl)amino)propyl)cyclobutanecarboxamide]
1 to 100 | 25 to 100 |  | 100 to 300 | 1 to 25 | Cc1nn(C2CCNCC2)cc1Nc1ncc(C(F)(F)F)c(NCCCNC(=O)C2CCC2)n1 [Example 21, N-(3-((2-((3-methyl-1-(piperidin-4-yl)-1H-pyrazol-4-yl)amino)-5-(trifluoromethyl)pyrimidin-4-yl)amino)propyl)cyclobutanecarboxamide]
1 to 100 |  |  | 100 to 300 | 1 to 25 | Cc1cc(N2CCN(C)CC2)ccc1Nc1ncc(C(F)(F)F)c(NCCCNC(=O)C2CCC2)n1 [Example 2]
1 to 100 | 25 to 100 |  | 10 to 100 | 1 to 25 | Cc1nn(C2CCN(CC(C)C)CC2)cc1Nc1ncc(C(F)(F)F)c(NCCCNC(=O)C2CCC2)n1 [Example 23]
1 to 100 | 25 to 100 |  | 100 to 300 | 1 to 25 | Cc1cc(C2CCNCC2)ccc1Nc1ncc(C(F)(F)F)c(NCCCN(C)C(=O)C2CCC2)n1 [Example 16]
